Like-named read-outs stand apart in the source and are kept apart here.

This is an account of results in PMC9525106, “Intestinal permeability of agaro-oligosaccharides: Transport across Caco-2 cell monolayers and pharmacokinetics in rats” (Frontiers in Nutrition, 2022).

In series [1] the test system is Caco-2 cell monolayers. The series is classed as in vitro ADME, human. As for the experimental part:
(§1) Caco-2 cells were purchased from DS Pharma (Osaka, Japan). The cells (passage 20–27) were cultured in E-MEM containing 10% (v/v) FBS, 1% (v/v) MEM-NEAA, and 1% (v/v) PS. The cells were incubated at 37°C in an atmosphere of 5% CO2 under 95% relative humidity. When the cells reached 80–90% confluence, they were passaged at a density of 1.0 × 10^5 cells onto a 12-well Transwell Permeable Support (0.4-μm pore polyester membrane insert, Corning, NY, USA). The cells were cultured for 19–21 days to obtain a monolayer. The culture medium (0.6 ml in the apical side and 1.5 ml in the basolateral side) was replaced every 1–2 days. The integrity of the Caco-2 cell monolayer was evaluated by measuring transepithelial electrical resistance (TEER) using a Millicell-ERS-2 system (Merck, Darmstadt, Germany). Only cell monolayers with final TEER values above 700 Ω · cm^2, indicative of high barrier integrity, were used for the transport assays.
(§2) Caco-2 cells monolayers were preincubated in HBSS for 30 min at 37°C. Subsequently, 0.6 ml of 0.5 mg/ml Abi and Ahe and 1.5 ml of HBSS to the apical and basolateral sides, respectively. After incubation for 0, 1, 2, and 3 h, the supernatant was collected from the basolateral side. To identify the transport mechanisms, Caco-2 cell monolayers were preincubated with sodium azide (1 mM), colchicine (1 mM), or cytochalasin B (5 μg/ml) dissolved in HBSS with 0.1% DMSO for 30 min, followed by the incubation of 0.5 mg/ml Abi and Ahe for 2 h. To remove salt, the collected supernatant was applied to the graphitized carbon solid-phase extraction (GC-SPE) using InertSep GC (200 mg/3 ml) (GL Sciences Inc., Tokyo, Japan), according to the method described by Ninonuevo et al. ([12]). The SPE cartridge was first equilibrated with 6 ml of 80% acetonitrile in 0.1% acetic acid (v/v), followed by 3 ml of DW. The basal solution was dissolved in DW to 3 ml and loaded onto the cartridge. The salts were removed by washing with 6 ml of DW, and Abi or Ahe was eluted with 3 ml of 20% acetonitrile. After ABEE derivatization, the collected solution was evaporated to dryness and subjected to LC-MS. The apparent permeability coefficients (Papp) were calculated ([13]) as Papp = (dQ/dt) × (1/AC0), where dQ/dt is the permeation rate (μg/s), A is the area of the monolayer of Caco-2 cells (cm^2), and C0 is the initial concentration of Abi or Ahe in the apical chamber (μg/ml).

Series [2] deals with Caco-2 cell monolayers. Briefly: Transepithelial permeation route analysis with transport inhibitors in Caco-2 cell monolayers. To be noted: for effect of sodium azide on transport rate: 1 mM sodium azide preincubated 30 min, then 2 h incubation; for effect of cytochalasin B on transepithelial permeability: Caco-2; for effect on TEER value of Caco-2 cell monolayers: inhibitor in apical chamber (sodium azide 1 mM, colchicine 1 mM, cytochalasin B 5 μg/ml), TEER after 2 h. As for the experimental part:
as §1, §2
The effects of various inhibitors on the transepithelial absorption through Caco-2 cell monolayers were examined to identify the transport routes of Abi and Ahe. We used 1 mM sodium azide and 1 mM colchicine as an electron-transport-chain inhibitor and a transcytosis inhibitor, respectively, to determine whether an energy-dependent pathway is involved. […] Next, we used cytochalasin B as a tight junction disruptor to investigate the involvement of the paracellular pathway in the transepithelial permeation of Abi and Ahe. Cytochalasin B increases the paracellular permeability by affecting the tight junction structure through the myosin light chain kinase activation ([14]).
Background: Caco-2 monolayers are a common model of the intestinal barrier.

The subject of series [3] is Caco-2 cell monolayers. The series is classed as in vitro ADME, human. As to the method:
The correlation between TEER and permeation rate was examined to confirm the occurrence of Abi and Ahe transport via the paracellular pathway by using the LY fluorescent stain for comparison. Thus, Abi, Ahe, and LY were added to the apical chamber with or without cytochalasin B. The basal chamber solution was collected, and the TEER was measured every 1 h for 3 h, thereby quantifying Abi, Ahe, and LY in the basal chamber. The TEER and quantified values are plotted as a scatter plot in Figure 6.
This is another data set of the same source.

The conditions of series [4]: rat, in vivo, po.
Procedure: To prepare the standard curve samples of AOSs, the AOSs were labeled with ABEE using an ABEE labeling kit (J-Chemical, Tokyo, Japan) according to the method developed by Yasuno et al. ([11]). The reaction was performed according to the instructions provided by the manufacturer. Briefly, 40 μl of the ABEE reagent solution was added to 10 μl of the solution of AOSs and the mixture was vortexed and incubated at 80°C for 1 h. After cooling to 15–20°C, 200 μl of DW and an equal volume of chloroform were added, and the mixture was then vortexed and centrifuged for 1 min. The upper layer was filtered through a polytetrafluoroethylene membrane (4 mm diameter, 0.45-μm pore size; Membrane Solutions Limited, Plano, TX, USA) and subjected to LC-MS.
For the HPLC measurements, an LC-20AD pump (Shimadzu) fitted with a DGU-20A 5R degassing unit (Shimadzu) was used. The analytes were injected using a SIL-20AC autosampler (Shimadzu). In addition, a CTO-20AC column oven (Shimadzu) was used, and entire equipment was controlled using a CBM-20A unit (Shimadzu). The samples were separated on a Shim-pack VP-ODS (150 × 2.0 mm, 4.6 μm; Shimadzu) combined with a Shim-pack GVP-ODS guard column (2.0 mm i.d. × 5 mm, 4.6 μm; Shimadzu). The mobile phase consisted of acetic acid (0.1%) in water (A) and acetic acid (0.1%) in acetonitrile (B). The gradient conditions were as follows: 0–30 min, 9%−13% B; 30–45 min, 80% B; 45–60 min, 9% B. The flow rate was 0.2 ml/min. The column oven temperature was set at 60°C, and the autosampler temperature was 10°C.
The detection was performed using an LCMS-2020 (Shimadzu) ESI-MS device. The analytes were identified and quantified by selected ion monitoring in the positive-ion mode. The MS conditions were as follows: interface temperature, 350°C; desolvation line (DL) temperature, 250°C; heat block temperature, 200°C; nebulizer gas flow, 1.5 L/min; drying gas flow, 15 L/min; interface voltage, 4.5 kV; DL voltage, 0 kV.
Fifteen female Sprague–Dawley rats, aged 7 weeks, were purchased from Charles River Laboratories Japan (Kanagawa, Japan). The rats were acclimatized to standard laboratory conditions (20–25°C, 40%−70% humidity, and 12 h light/dark cycle) for 1 week.
After a fasting period of 12 h, 2 ml of phosphate-buffered saline (pH 7.4) containing 0%, 10%, or 50% AOSs was orally administered to five rats from each group (220–250 g body weight) using feeding gavages. The AOSs comprised 30.2, 29.1, and 31.6% of Abi, Ate, and Ahe, respectively. Blood (100 μl) was collected before and after 1, 2, 4, 8, and 24 h of oral administration from the tail vein using 10,000 U heparin-coated syringes (1 ml) with a 26G × 1/2 ” needle. The blood samples were centrifuged at 1,000 g for 10 min, and the supernatants were collected. Acetonitrile was added to the plasma samples at a final concentration of 60%. The samples were vigorously vortexed and centrifuged at 6,000 g for 5 min; the supernatants were collected and evaporated to dryness. Subsequently, the dried samples were dissolved in 10 μl of DW and subjected to ABEE derivatization before LC-MS analysis. The area under the curve (AUC) of plasma concentration was calculated using the trapezoid formula.
The subject of the next series is peritoneal macrophages. Details: method as in PMID 22791164. The note with it: oral administration to mice, 3% AOSs containing water for 3 weeks; cited from earlier work.
Details of series [5]: method as in PMID 20378994. The note with it: cited from earlier work.

On to `OC[C@H]1O[C@@H](O[C@H]2[C@H]3OC[C@@H]2OC(O)[C@H]3O)[C@H](O)[C@@H](O)[C@H]1O` (mixture of isomers) [Abi, agarobiose], for which, in the series with Caco-2 cell monolayers [1], the Papp is listed as 0.41 ± 0.03 10^−6 cm/s and the percentage permeated is 0.27 ± 0.02 %/h. In addition, in the series with Caco-2 cell monolayers [2], the “effect of sodium azide on transport rate” value was “did not have any significant effect” and the “effect of cytochalasin B on transepithelial permeability” value is “increased”. In the series on Caco-2 cell monolayers [3], the “Pearson correlation coefficient value between TEER and amount permeated” value is recorded as −0.832. Also, in series [4] (1 g/kg), the exposure (AUC) worked out at 620 ± 180 ng·h/mL, the Cmax was determined as 76.4 ± 36.7 ng/mL and the time to peak (Tmax) is recorded as 4 h. In series [4] (5 g/kg), the AUC amounted to 2560 ± 810 ng·h/mL, the highest concentration (Cmax) is 439.8 ± 182.6 ng/mL and the Tmax came to 4 h. Moreover, the “nitric oxide (NO) production on stimulated peritoneal macrophages” value with peritoneal macrophages was “suppression”.

For the molecule `OC[C@H]1O[C@@H](O[C@H]2[C@H]3OC[C@@H]2O[C@@H](O[C@H]2[C@@H](O)[C@@H](CO)O[C@@H](O[C@H]4[C@H]5OC[C@@H]4O[C@@H](O[C@H]4[C@@H](O)[C@@H](CO)O[C@@H](O[C@H]6[C@H]7OC[C@@H]6OC(O)[C@H]7O)[C@@H]4O)[C@H]5O)[C@@H]2O)[C@H]3O)[C@H](O)[C@@H](O)[C@H]1O` (mixture of isomers) [Ahe, agarohexaose], in the series with Caco-2 cell monolayers [1], the Papp is 0.21 ± 0.01 10^−6 cm/s and the percentage permeated turned out to be 0.14 ± 0.01 %/h. Besides, in the series on Caco-2 cell monolayers [2], the “effect of sodium azide on transport rate” value was “did not have any significant effect” and the “effect of cytochalasin B on transepithelial permeability” value is listed as “increased”. Also, the “Pearson correlation coefficient value between TEER and amount permeated” value with Caco-2 cell monolayers [3] is on record as −0.814. In series [4] (1 g/kg), the AUC stood at 290 ± 270 ng·h/mL, the highest concentration (Cmax) is 42.1 ± 37.1 ng/mL and the Tmax was 4 h. Besides, in series [4] (5 g/kg), the AUC came out at 460 ± 250 ng·h/mL, the Cmax stood at 107.8 ± 55.0 ng/mL and the time to peak (Tmax) amounted to 4 h.

For the molecule `OC[C@H]1O[C@@H](O[C@H]2[C@H]3OC[C@@H]2O[C@@H](O[C@H]2[C@@H](O)[C@@H](CO)O[C@@H](O[C@H]4[C@H]5OC[C@@H]4O[C@@H](O)[C@H]5O)[C@@H]2O)[C@H]3O)[C@H](O)[C@@H](O)[C@H]1O` [Ate, agarotetraose], in series [4] (1 g/kg), the AUC turned out to be 390 ± 170 ng·h/mL, the Cmax amounted to 58.9 ± 37.6 ng/mL and the time of peak concentration (Tmax) came to 4 h. For the same molecule, in series [4] (5 g/kg), the AUC was 1390 ± 450 ng·h/mL, the peak concentration (Cmax) worked out at 239.5 ± 98.2 ng/mL and the Tmax was 4 h. For the same molecule, the “nitric oxide (NO) production on stimulated peritoneal macrophages” value in the series with peritoneal macrophages is “suppression”.

As to `COc1cc2c(c(OC)c1OC)-c1ccc(OC)c(=O)cc1[C@@H](NC(C)=O)CC2` [colchicine, reference compound], the “effect on TEER value of Caco-2 cell monolayers” value (from here on “effect on TEER value”) in the series on Caco-2 cell monolayers [2] was “did not have any significant effect”.

As for `C=C1[C@@H](C)[C@H]2[C@H](Cc3ccccc3)NC(=O)[C@]23OC(=O)/C=C/[C@H](O)CCC[C@@H](C)C/C=C/[C@H]3[C@@H]1O` [cytochalasin B, reference compound], the “effect on TEER value” value with Caco-2 cell monolayers [2] is on record as “significantly decreased”.

With `OC[C@H]1O[C@@H](O)[C@H](O)[C@@H](O[C@@H]2O[C@H]3CO[C@@H]([C@@H]2O)[C@@H]3O[C@@H]2O[C@H](CO)[C@H](O)[C@H](O[C@@H]3O[C@H]4CO[C@@H]([C@@H]3O)[C@@H]4O[C@@H]3O[C@H](CO)[C@H](O)[C@H](O[C@@H]4O[C@H]5CO[C@@H]([C@@H]4O)[C@@H]5O)[C@H]3O)[C@H]2O)[C@H]1O` [neoagarohexaose], in series [5], the anti-inflammatory activity result is on record as “no anti-inflammatory activity”.

Take `[N-]=[N+]=[N-].[Na+]` [sodium azide, reference compound]: the “effect on TEER value” value in the series with Caco-2 cell monolayers [2] is “did not have any significant effect”.

On to “Lucifer yellow CH dilithium salt [LY, reference compound]”, for which the “Pearson correlation coefficient value between TEER and amount permeated” value in the series on Caco-2 cell monolayers [3] was −0.779.

Broadly, the AUC is the area under the concentration-time curve, a measure of exposure. The term Cmax denotes the highest concentration seen after dosing. A word on the Tmax: it is the time at which the peak concentration occurs.
